Measured values as given in patent US11793818B2, “Method for treating conditions associated with hyperproliferating cells comprising combined administration of a cannabinoid receptor agonist and radiation therapy” (Theralase Technologies, Inc., priority 2018, dated 2023).

Tested on: Glioma cells
Assay: Glioma cell kill (presto blue) after d9-THC pre-treatment and PDT with 14C PDC
Assay type: cell-based
Conditions: 40 μM d9-THC, no PDT
Protocol: Glioma cells were treated with delta9-tetrahydrocannabinol (“d9-THC”) for 24 hours prior to treatment with 14C PDC and light activated. Five concentrations of d9-THC were used (0, 5, 10, 20, 40 μM). As a significant effect was only observed with a d9-THC concentration of 40 μM, only the results obtained at this concentration are shown (see FIG. 1). After 24 hours, cells were treated with 14C PDC for 4 hours, PDT was performed using green light (20 J/cm^2) and plates were incubated overnight for presto blue on the following day. The PDT dose used was decreased to induce 10-15% cell kill in order to highlight any additive/synergistic effect of the combination that might otherwise be masked if a higher dose had been used.
Absolute cell kill values are shown with error bars representing standard deviations between wells. The hypothetical additive effect represents the hypothetical cell kill percentage had the combined effect merely been additive. Reading from left to right in FIG. 1: the first bar is the control; the second bar is d9-THC only; the third bar is light activated 14C PDC only; the fourth bar is hypothetical cell kill percentage of d9-THC combined with 14C PDC light activated; and the fifth bar is PDT (light activated 14C PDC) combined with the tested cannabinoid. PDT alone (light activated 14C PDC) induced 10% cell kill. 40 μM of d9-THC induced 10% cell kill.

## CCCCCc1cc(O)c2c(c1)OC(C)(C)[C@@H]1CCC(C)=C[C@@H]21 [d9-THC, delta9-tetrahydrocannabinol]
  cell kill, d9-THC only: 10%
